Results published in patent US20230357179A1, “RAF KINASE INHIBITORS AND METHODS OF USE THEREOF” (Deciphera Pharmaceuticals, LLC, priority 2021, published 2023).

Columns and labels:
A375 cells = test: A375 cell proliferation assay (1), resazurin, 96-well; assay type: cell-based; details: Homo sapiens, A-375, inhibition of cell proliferation
Method: A375 Cell Proliferation Assay (1)
A375 cells (catalog (#CRL-1619) are obtained from the American Type Culture Collect (ATTC, Manassas, VA). Briefly, cells were grown in DMEM High Glucose supplemented with 10% characterized fetal bovine serum (Invitrogen, Carlsbad, CA) and 1% Penicillin/Streptomycin/L-Glutamine at 37° C., 5% CO2, and 95% humidity. Cells are expanded until reaching 70-95% confluency at which point they are sub-cultured or harvested for assay use. A serial dilution of test compound is dispensed into a 96-well black clear bottom plate in triplicate. Two thousand five hundred cells are added per well in 200 μL complete growth medium in the 96-well plate. Plates are incubated for 67-72 hours at 37° C., 5% CO2, and 95% humidity. At the end of the incubation, 40 μL of a 440 μM solution of resazurin (Sigma, St. Louis, MO) in PBS is added to each well of the plate and plates are incubated for an additional 5-6 hours at 37° C., 5% CO2, and 95% humidity. Plates are read on a Synergy2 or equivalent reader (Biotek, Winooski VT) using an excitation of 540 nm and an emission of 600 nm. Data is analyzed using Prism software (GraphPad, San Diego, CA) to calculate IC50 values.

B-Raf kinase = molecular target: T1, B-Raf kinase (Homo sapiens, UniProt P15056); test: Biochemical assay for B-Raf.1 (coupled pyruvate kinase/lactate dehydrogenase); details: read-out: BRAF.1 IC50
T1 construct: GST (N); purchased Sigma
T1 sequence (P15056 416-766): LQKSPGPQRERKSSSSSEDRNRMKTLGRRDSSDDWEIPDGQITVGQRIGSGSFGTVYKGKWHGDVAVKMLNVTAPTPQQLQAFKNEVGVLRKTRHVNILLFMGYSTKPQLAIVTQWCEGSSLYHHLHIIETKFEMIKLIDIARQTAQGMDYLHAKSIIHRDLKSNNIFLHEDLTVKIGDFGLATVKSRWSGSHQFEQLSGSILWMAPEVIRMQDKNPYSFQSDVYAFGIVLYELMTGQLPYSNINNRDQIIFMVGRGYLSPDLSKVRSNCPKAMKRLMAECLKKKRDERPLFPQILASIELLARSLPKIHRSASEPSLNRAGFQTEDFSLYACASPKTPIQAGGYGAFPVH
Method in brief: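 Reaction rates over the 4–5 h window of a continuous 6 h, 30 °C read were converted to percent inhibition and fitted for IC50. B-Raf (0.13 nM) phosphorylated 30.1 nM MEK with 1 mM ATP; ADP coupled via PK/LDH to NADH loss at 340 nm, 1% DMSO final.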

C-Raf kinase = molecular target: T2, C-Raf kinase (Homo sapiens, UniProt P04049, Y340D/Y341D); test: Biochemical assay for C-Raf.1 (coupled pyruvate kinase/lactate dehydrogenase); details: read-out: CRAF.1 IC50
T2 construct: Y340D,; GST (N); purchased Sigma
T2 sequence (P04049 307-648 Y340D/Y341D): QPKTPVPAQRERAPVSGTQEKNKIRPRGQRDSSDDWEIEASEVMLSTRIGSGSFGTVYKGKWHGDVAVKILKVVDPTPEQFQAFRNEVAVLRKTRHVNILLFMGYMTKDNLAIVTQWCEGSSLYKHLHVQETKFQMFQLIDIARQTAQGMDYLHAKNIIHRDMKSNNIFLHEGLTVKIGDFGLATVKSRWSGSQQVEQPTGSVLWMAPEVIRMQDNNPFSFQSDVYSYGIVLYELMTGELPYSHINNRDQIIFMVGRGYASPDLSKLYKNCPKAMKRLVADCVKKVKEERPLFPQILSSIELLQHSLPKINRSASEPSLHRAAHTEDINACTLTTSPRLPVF
Method in brief: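 NADH depletion at 340 nm monitored continuously for 6 h at 30° C, with rates taken over 4–5 h. The coupled pyruvate kinase/lactate dehydrogenase reaction used 1 mM ATP, 30.1 nM MEK substrate and 0.43 nM kinase at pH 7.5. IC50 was fitted sigmoidally from percent inhibition of serially diluted compound.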

A-Raf kinase = molecular target: T3, A-Raf kinase (Homo sapiens, UniProt P10398, Y301D/Y302D); test: Biochemical assay for A-Raf.1 (coupled pyruvate kinase/lactate dehydrogenase); details: read-out: ARAF.1 IC50
T3 construct: purchased Sigma
T3 sequence (P10398 with tags, fused parts or gaps Y301D/Y302D): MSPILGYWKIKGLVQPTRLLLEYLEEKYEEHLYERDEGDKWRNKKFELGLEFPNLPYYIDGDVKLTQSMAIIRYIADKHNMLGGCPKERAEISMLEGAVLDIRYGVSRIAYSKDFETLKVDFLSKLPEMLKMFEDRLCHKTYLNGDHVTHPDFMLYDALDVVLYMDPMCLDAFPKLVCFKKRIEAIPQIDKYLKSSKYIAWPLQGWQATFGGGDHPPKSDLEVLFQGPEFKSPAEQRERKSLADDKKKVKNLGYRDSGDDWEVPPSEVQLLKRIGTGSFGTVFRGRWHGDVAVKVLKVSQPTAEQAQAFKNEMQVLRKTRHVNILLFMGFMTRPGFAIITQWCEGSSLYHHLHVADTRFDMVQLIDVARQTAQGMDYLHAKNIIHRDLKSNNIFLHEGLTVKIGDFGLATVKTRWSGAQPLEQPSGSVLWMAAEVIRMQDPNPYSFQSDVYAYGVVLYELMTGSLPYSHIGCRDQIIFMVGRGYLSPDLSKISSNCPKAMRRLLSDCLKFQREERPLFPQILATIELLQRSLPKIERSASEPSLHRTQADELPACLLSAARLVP
Method in brief: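 IC50 values came from four-parameter sigmoidal fits of percent inhibition, using rates over the 4 to 5 h window of continuous A340 readings (6 h, 30° C). The coupled PK/LDH system tracked NADH oxidation during 5.55 nM A-Raf activity on 30.1 nM MEK at 1 mM ATP, buffer pH 7.5.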

Compound	IC50 (A375 cells)	IC50 (B-Raf kinase)	IC50 (C-Raf kinase)	IC50 (A-Raf kinase)
Cc1cc(F)c(NC(=O)NCC(C)C)cc1-c1cc(OCCO)nc(-c2ccnc(NC(=O)C3CC3)c2)c1 [Example 99]	1000 to 10000 nM	≤ 100 nM	≤ 100 nM	500 to 1000 nM
COC(=O)Nc1cc(-c2cc(-c3cc(NC(=O)NCCC4COC4)c(F)cc3C)cc(OCCO)n2)ccn1 [Example 155]	1000 to 10000 nM	≤ 100 nM	≤ 100 nM	> 1000 nM
COC[C@H]1CCN(C(=O)Nc2cc(-c3cc(-c4ccnc(NC(=O)OC)c4)cnn3)c(C)cc2F)C1 [Example 148]	1000 to 10000 nM	500 to 1000 nM	500 to 1000 nM	> 1000 nM
COC(C)(C)CCNC(=O)Nc1cc(-c2cc(-c3ccnc(NC(=O)C4CC4)c3)cnn2)c(C)cc1F [Example 142]	1000 to 10000 nM	≤ 100 nM	≤ 100 nM	> 1000 nM
Cc1ncc(NC(=O)NCCC2(C)CC2)cc1-c1cc(OCCO)nc(-c2ccnc(NC(=O)C3CC3)c2)n1 [Example 133]	500 to 1000 nM	≤ 100 nM	≤ 100 nM	500 to 1000 nM
COC(C)(C)CCNC(=O)Nc1cc(-c2ccnc(-c3ccnc(NC(=O)C4CC4)c3)n2)c(C)cc1F [Example 108]	500 to 1000 nM	≤ 100 nM	≤ 100 nM	100 to 500 nM
Cc1cc(F)c(NC(=O)NCCC(C)(C)C)cc1-c1cc(OCCO)nc(C2=CCOCC2)c1 [Example 7]	1000 to 10000 nM	≤ 100 nM	≤ 100 nM	> 1000 nM
COC(=O)Nc1cc(-c2cc(-c3cc(NC(=O)NCCC4(C)CC4)cnc3C)ccn2)ccn1 [Example 103]	1000 to 10000 nM	≤ 100 nM	≤ 100 nM	> 1000 nM
COC(=O)Nc1cc(-c2nccc(-c3cc(NC(=O)NCCC4(C)CC4)cnc3C)n2)ccn1 [Example 135]	1000 to 10000 nM	100 to 500 nM	≤ 100 nM	> 1000 nM
Cc1ncc(NC(=O)NC2CC(C)(C)C2)cc1-c1cc(OCCO)nc(-c2ccnc(NC(=O)C3CC3)c2)c1 [Example 126]	100 to 500 nM	≤ 100 nM	≤ 100 nM	500 to 1000 nM
Cc1cc(F)c(NC(=O)NCCC(C)(C)F)cc1-c1cccc(-c2ccnc3[nH]ncc23)c1 [Example 100]	1000 to 10000 nM	≤ 100 nM	≤ 100 nM	> 1000 nM
COC(=O)Nc1cc(-c2cnnc(-c3cc(NC(=O)NCCC(C)(C)OC)cnc3C)c2)ccn1 [Example 153]	1000 to 10000 nM	500 to 1000 nM	500 to 1000 nM	> 1000 nM
CNC(=O)c1cc(-c2cnnc(-c3cc(NC(=O)NCCC(C)(C)F)c(F)cc3C)c2)ccn1 [Example 132]	1000 to 10000 nM	100 to 500 nM	100 to 500 nM	> 1000 nM
Cc1ncc(NC(=O)NCCN2CCC2)cc1-c1cc(OCCO)nc(-c2ccnc(NC(=O)C3CC3)c2)c1 [Example 172]	1000 to 10000 nM	> 1000 nM	> 1000 nM	> 1000 nM
Cc1ncc(NC(=O)NCCC2(C)CC2)cc1-c1ccnc(-c2ccnc(NC(=O)C3(C#N)CC3)c2)c1 [Example 169]	1000 to 10000 nM	≤ 100 nM	≤ 100 nM	> 1000 nM
COC[C@@H]1CCN(C(=O)Nc2cnc(C)c(-c3cc(OCCO)nc(-c4ccnc(NC(=O)OC)c4)c3)c2)C1 [Example 160]	1000 to 10000 nM	100 to 500 nM	100 to 500 nM	> 1000 nM

Compound	IC50 (A375 cells)	IC50 (B-Raf kinase)	IC50 (C-Raf kinase)	IC50 (A-Raf kinase)
COC(=O)Nc1nccc(-c2cc(OCCO)cc(-c3cc(NC(=O)NCCC4(C)CC4)c(F)cc3C)c2)n1 [Example 122]	500 to 1000 nM	≤ 100 nM	≤ 100 nM	> 1000 nM
COC(=O)Nc1cc(-c2cnnc(-c3cc(NC(=O)NCCC(C)(C)F)c(F)cc3C)c2)ccn1 [Example 141]	1000 to 10000 nM	≤ 100 nM	≤ 100 nM	> 1000 nM
Cc1cc(F)c(NC(=O)NCCC(C)(C)F)cc1-c1nccc(-c2ccnc(NC(=O)C3CC3)c2)n1 [Example 114]	1000 to 10000 nM	≤ 100 nM	≤ 100 nM	100 to 500 nM
Cc1cc(F)c(NC(=O)NCCC(C)(C)F)cc1-c1ccnc(-c2ccnc(NC(=O)C3CC3)c2)c1 [Example 159]	1000 to 10000 nM	≤ 100 nM	≤ 100 nM	500 to 1000 nM
CNC(=O)c1cc(-c2cnnc(-c3cc(NC(=O)NCCC(C)(C)OC)cnc3C)c2)ccn1 [Example 154]	1000 to 10000 nM	> 1000 nM	> 1000 nM	> 1000 nM
Cc1ncc(NC(=O)NCCC2(C)CC2)cc1-c1cc(OCCO)nc(-c2ccnc3c2CC(=O)N3)c1 [Example 112]	1000 to 10000 nM	≤ 100 nM	≤ 100 nM	> 1000 nM
Cc1ncc(NC(=O)NCCC2(C)CC2)cc1-c1ccnc(-c2ccnc(NC(=O)C3CC3)c2)c1 [Example 118]	1000 to 10000 nM	≤ 100 nM	≤ 100 nM	> 1000 nM
COC(=O)Nc1cc(-c2cc(-c3cc(NC(=O)NC[C@H]4CCO4)c(F)cc3C)cc(OCCO)n2)ccn1 [Example 96]	1000 to 10000 nM	500 to 1000 nM	100 to 500 nM	> 1000 nM
COC(=O)Nc1cc(-c2nccc(-c3cc(NC(=O)NCCC4(OC)CC4)c(F)cc3C)n2)ccn1 [Example 146]	1000 to 10000 nM	≤ 100 nM	≤ 100 nM	> 1000 nM
Cc1cc(F)c(NC(=O)NCCC2(C)CC2)cc1-c1cnnc(-c2ccnc(NC(=O)C3CC3)c2)c1 [Example 168]	100 to 500 nM	≤ 100 nM	≤ 100 nM	500 to 1000 nM
CNC(=O)c1cc(-c2cnnc(-c3cc(NC(=O)NCCC(C)(C)OC)c(F)cc3C)c2)ccn1 [Example 123]	1000 to 10000 nM	> 1000 nM	500 to 1000 nM	> 1000 nM
COC(=O)Nc1cc(-c2nccc(-c3cc(NC(=O)NCCC(C)(C)F)c(F)cc3C)n2)ccn1 [Example 147]	1000 to 10000 nM	≤ 100 nM	≤ 100 nM	> 1000 nM
Cc1cc(F)c(NC(=O)NCCC(C)(C)F)cc1-c1cc(-c2ccnc(NC(=O)C3CC3)c2)cnn1 [Example 139]	1000 to 10000 nM	≤ 100 nM	≤ 100 nM	> 1000 nM
COC(=O)Nc1cc(-c2cc(-c3cc(NC(=O)N4CCC(C)(C)CC4)cnc3C)cc(OCCO)n2)ccn1 [Example 166]	1000 to 10000 nM	100 to 500 nM	≤ 100 nM	> 1000 nM
COC(=O)Nc1cc(-c2cc(-c3cc(NC(=O)NC4CC(C)(C)C4)cnc3C)cc(OCCO)n2)ccn1 [Example 156]	1000 to 10000 nM	≤ 100 nM	≤ 100 nM	> 1000 nM
